The subject of one data set is HIV-1 SF2. Particulars: read-out: IC50 (μM) (Mean ± SD); HIV-1 strain SF2. The procedure: (§1) Assessment of anti-HIV-1 infectivity. The inhibitory activity of compounds on infection by laboratory-adapted HIV-1 strains was determined as previously described (34). In brief, 1×10^4 MT-2 cells were infected with HIV-1 at 100 TCID50 (50% tissue culture infective dose) in 200 μl of RPMI 1640 medium containing 10% FBS in the presence or absence of compounds at graded concentrations overnight. For the time-of-addition assay, compounds were added at various time post-infection. Then the culture supernatants were removed and fresh media were added. On the fourth day post-infection, 100 μl of culture supernatants were collected from each well, mixed with equal volumes of 5% Triton X-100 and assayed for p24 antigen, which was quantitated by ELISA (23). Briefly, the wells of polystyrene plates (Immulon 1B, Dynex Technology, Chantilly, Va.) were coated with HIV immunoglobulin (HIVIG), which was prepared from plasma of HIV-seropositive donors with high neutralizing titers against HIV-1IIIB as previously described (36) in 0.085 M carbonate-bicarbonate buffer (pH 9.6) at 4° C. overnight, followed by washes with PBS-T buffer (0.01M PBS containing 0.05% Tween-20) and blocking with PBS containing 1% dry fat-free milk (Bio-Rad Inc., Hercules, Calif.). Virus lysates were added to the wells and incubated at 37° C. for 1 h. […] Reactions were terminated by addition of 1N H2SO4. Absorbance at 450 nm was recorded in an ELISA reader (Ultra 384, Tecan). Recombinant protein p24 (US Biological, Swampscott, Mass.) was included for establishing standard dose response curve.

In data set [1] the test system is laboratory-adapted HIV-1 strains, including RF, SF2, MN, and AZT-R. Conditions: dose-dependent. The method, then:
as §1

For another data set, the system named is HIV-1 RF. Conditions: read-out: IC50 (μM) (Mean ± SD); HIV-1 strain RF. The method, then: as §1
The test system of data set [2] is HIV-1 AZT-R, a strain resistant to AZT. Conditions: read-out: IC50 (μM) (Mean ± SD); HIV-1 strain AZT-R. The method, then:
as §1

Another data set has as its system HIV-1 MN. Particulars: read-out: IC50 (μM) (Mean ± SD); HIV-1 strain MN. The procedure: as §1
The subject of the next data set is 93BR020 (clade F, X4R5). Particulars: read-out: EC50 (μM) (Mean ± SD). The procedure: (§2) Inhibitory activity of compounds on infection by primary HIV-1 isolates was determined as previously described (37). PBMCs were isolated from the blood of healthy donors at the New York Blood Center by standard density gradient centrifugation using Histopaque-1077 (Sigma). The cells were plated in 75 cm^2 plastic flasks and incubated at 37° C. for 2 hrs. The nonadherent cells were collected and resuspended at 5×10^6 in 10 ml RPMI-1640 medium containing 10% FBS, 5 μg/ml PHA and 100 U/ml IL-2 (Sigma), followed by incubation at 37° C. for 3 days. The PHA-stimulated cells were infected with corresponding primary HIV-1 isolates at 0.01 multiplicity of infection (MOI) in the absence or presence of a compound at graded concentrations. Culture media were changed every 3 days. The supernatants were collected 7 days post-infection and tested for p24 antigen by ELISA as described above. The percent inhibition of p24 production and IC50 values were calculated as described above.

Another data set concerns 93MW959 (clade C, R5). Conditions: read-out: EC50 (μM) (Mean ± SD). The procedure: as §2
A further data set deals with RU570 (clade G, R5). Conditions: read-out: EC50 (μM) (Mean ± SD). The procedure:
as §2

In a further data set the test system is 92US657 (clade B, R5). Particulars: read-out: EC50 (μM) (Mean ± SD). The method, then: as §2
The next data set deals with 94UG103 (clade A, X4R5). Conditions: read-out: EC50 (μM) (Mean ± SD). The procedure: as §2
For another data set, the system named is 92THA009 (clade E, R5). Particulars: read-out: EC50 (μM) (Mean ± SD). The procedure:
as §2

For a further data set, the system named is BCF02 (clade O, R5). Conditions: read-out: EC50 (μM) (Mean ± SD). The method, then:
as §2

The test system of another data set is 92UG001 (clade D, X4). Particulars: read-out: EC50 (μM) (Mean ± SD). The procedure:
as §2

The subject of data set [3] is HIV-1IIIB infected H9 cells (H9/HIV-1IIIB) and MT-2 cells. Nature of the data set: HIV-1 mediated cell-cell fusion (dye transfer assay). The format is cell-based. Conditions: for EC50: H9/HIV-1IIIB with MT-2 cells, read-out: EC50 (μM) (M ± SD) for inhibition of Cell fusion; for inhibition of fusion of HIV-1IIIB infected H9 cells with uninfected MT-2 cells: dose dependent, FIG. 2. Put shortly:
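Calcein-AM-labelled H9/HIV-1IIIB cells were co-incubated with MT-2 cells (1:5) for 2 h at 37 °C with or without compounds. Fused and unfused labelled cells counted by fluorescence microscopy; percent fusion inhibition and IC50 calculated.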

The test system of a further data set is HIV-1 IIIB. Particulars: for EC50: read-out: EC50 (μM) (M ± SD) for inhibition of p24, MT-2 cells; for SI (CC50/EC50): selectivity index.
The mark [4] stands for this setting: read-out: IC50 (μM) (Mean ± SD), HIV-1 strain IIIB.

Each structure is given as a SMILES string. Read-outs that look alike come from different tables or passages of the source.

As a reminder, the IC50 is the concentration that gives 50% inhibition. What is called EC50 is the concentration needed to bring the measured effect to its halfway point.

With `O=C(O)c1cccc(-c2ccc(/C=C3\SC(=S)N(c4ccc(Cl)cc4Cl)C3=O)o2)c1` [NB231], the IC50 with HIV-1 SF2 came out at 4.68 ± 0.559 µM; in the data set on HIV-1 RF, 0.152 ± 0.029 µM; in [2], 0.823 ± 0.053 µM; with HIV-1 MN it was 1.69 ± 0.044 µM; with HIV-1 IIIB (setting [4]), 0.189 ± 0.042 µM. In addition, the “IC50 values, infection by other laboratory-adapted HIV-1 strains” value (shortened to “IC50 values, infection”) in data set [1] is recorded as “nanomolar range”. The EC50 was determined as 0.139 ± 0.033 µM with 93BR020 (clade F, X4R5); 0.876 ± 0.002 µM in the data set on 93MW959 (clade C, R5); 0.143 ± 0.061 µM in the data set on RU570 (clade G, R5); 1.06 ± 0.344 µM in the data set on 92US657 (clade B, R5); 0.125 ± 0.013 µM with 94UG103 (clade A, X4R5); 0.217 ± 0.058 µM in the data set on 92THA009 (clade E, R5). Also, the EC50 in the data set with BCF02 (clade O, R5) worked out at 0.226 ± 0.003 µM; in the data set with 92UG001 (clade D, X4), 0.19 ± 0.002 µM; in data set [3], 0.982 ± 0.054 µM; in the data set on HIV-1 IIIB (HIV-1 IIIB), 0.189 ± 0.042 µM. Besides, in [3], the “inhibition of fusion of HIV-1IIIB infected H9 cells with uninfected MT-2 cells” value (“inhibition” below) is “inhibited fusion”. Moreover, the “SI (CC50/EC50)” value in the data set with HIV-1 IIIB is 656.56.
In the case of `O=C(O)c1cc(-c2ccc(/C=C3\SC(=S)N(CCc4ccccc4)C3=O)o2)ccc1Cl` [NB206], the IC50 with HIV-1 SF2 is 0.261 ± 0.062 µM; in the data set with HIV-1 RF, 0.034 ± 0.014 µM; in data set [2], 0.046 ± 0.004 µM; in the data set with HIV-1 MN, 0.174 ± 0.027 µM; in [3], less than 667 nM; in the data set on HIV-1 IIIB (read-out: IC50 inhibiting HIV-1 replication, HIV-1 IIIB) it was 0.019 µM. In addition, the “IC50 values, infection” value in data set [1] is “nanomolar range”. The EC50 was found to be 0.084 ± 0.036 µM in the data set with 93BR020 (clade F, X4R5); 0.097 ± 0.002 µM with 93MW959 (clade C, R5); 0.017 ± 0.004 µM in the data set on RU570 (clade G, R5); 0.216 ± 0.054 µM with 92US657 (clade B, R5); 0.004 ± 0.001 µM in the data set on 94UG103 (clade A, X4R5); 0.075 ± 0.022 µM with 92THA009 (clade E, R5). In addition, the EC50 in the data set on BCF02 (clade O, R5) is 0.073 ± 0.012 µM; in the data set on 92UG001 (clade D, X4), 0.188 ± 0.053 µM; in data set [3], 0.459 ± 0.05 µM; in the data set with HIV-1 IIIB (HIV-1 IIIB), 0.019 ± 0.002 µM. For the same molecule, the “inhibition” value in data set [3] is recorded as “inhibited fusion”. Further, the “SI (CC50/EC50)” value in the data set on HIV-1 IIIB is given as 981.11.
For `CCN1C(=O)/C(=C/c2ccc(-c3cccc(C(=O)O)c3)o2)SC1=S` [NB179], the IC50 was 11.9 ± 1.7 µM in the data set on HIV-1 SF2; 4.2 ± 0.256 µM in the data set with HIV-1 RF; 4.39 ± 0.471 µM in data set [2]; 2.93 ± 0.362 µM in the data set with HIV-1 MN; 0.501 ± 0.039 µM in the data set on HIV-1 IIIB (setting [4]). In addition, the “IC50 values, infection” value in data set [1] is reported as “nanomolar range”. Further, the EC50 amounted to 0.143 ± 0.056 µM with 93BR020 (clade F, X4R5); 1.87 ± 0.155 µM in the data set on 93MW959 (clade C, R5); 0.431 ± 0.122 µM in the data set with RU570 (clade G, R5); 0.847 ± 0.356 µM in the data set on 92US657 (clade B, R5); 0.088 ± 0.047 µM in the data set with 94UG103 (clade A, X4R5); 6.21 ± 0.987 µM in the data set with 92THA009 (clade E, R5). Further, the concentration for a half-maximal effect (EC50) came to 0.886 ± 0.242 µM in the data set on BCF02 (clade O, R5); 0.613 ± 0.099 µM in the data set on 92UG001 (clade D, X4); 3.66 ± 0.154 µM in [3]; 0.501 ± 0.039 µM in the data set with HIV-1 IIIB (HIV-1 IIIB). Moreover, the “inhibition” value in data set [3] is reported as “inhibited fusion”. For the same molecule, in the data set on HIV-1 IIIB, the “SI (CC50/EC50)” value is given as more than 1230.77.
